Laboratory results taken from patent US7414058B2, “Adenosine A2a receptor antagonists for the treatment of extra-pyramidal syndrome and other movement disorders” (Schering Corporation, priority 2002, dated 2008).

Tested on: haloperidol-induced EPS in Cebus apella monkeys
Assay: Haloperidol-induced EPS in sensitized Cebus apella monkeys
Format: in vivo
Conditions: for monkeys in which onset of EPS was prevented: group of seven monkeys
Method: A more complete understanding of the invention may be obtained by reading the following description in conjunction with the appended figures relating to haloperidol-induced EPS in Cebus apella monkeys.
Compound A was administered orally (p.o.) at doses of 0.3-30 mg/kg, in conjunction with haloperidol. The studies were conducted using a within-subjects design such that each monkey received all 6 treatments (vehicle and 5 doses of Compound A) in a crossover, balanced design.

[1] = 1 mg/kg p.o., haloperidol 0.3 mg/kg p.o.
[2] = 10 and 30 mg/kg p.o., haloperidol 0.3 mg/kg p.o.

## Nc1nc2c(cnn2CCN2CCN(c3ccc(F)cc3F)CC2)c2nc(-c3ccco3)nn12 [Compound A]
[1]
  monkeys in which onset of EPS was prevented: one
  delay of the onset of EPS: 1 h
3 mg/kg p.o., haloperidol 0.3 mg/kg p.o.
  monkeys in which onset of EPS was prevented: two
3 mg/kg p.o., in the remaining monkeys, haloperidol 0.3 mg/kg p.o.
  delay of the onset of EPS: ~2 h
[2]
  monkeys in which onset of EPS was prevented: three
  delay of the onset of EPS (average): 2.3 to 2.9 h
Compound A 0.3-30 mg/kg p.o. with haloperidol 0.3 mg/kg p.o., FIG. 1A, seven monkeys, crossover
  maximum EPS score: dose-dependent reduction
Compound A 0.3-30 mg/kg p.o. with haloperidol 0.3 mg/kg p.o., FIG. 1B, vs vehicle
  delay in the onset of EPS (dose dependence): dose-dependent delay
